Measurements as given in article PMC10803289, “Transport and inhibition mechanism of the human SGLT2–MAP17 glucose transporter” (Nature Structural & Molecular Biology, 2023).
Changes are numbered by the printed parent chain. Values joined by “and” are separate entries in the source; they are usually repeats but may differ in a detail not shown here. Identical values can stand only once.

Columns and labels:
SGLT2 = tested on: SGLT2; set-up: method as in literature; settings: referee comment in peer review file; ref literature; cited from earlier work
[1] = tested on: β-glucosidase in the intestine; set-up: method as in PMID 21358697; settings: O-glucoside hydrolyzed by β-glucosidase in the intestine; cited from earlier work
hSGLT2 F453A = target: T1, hSGLT2 F453A (Homo sapiens, UniProt P31639, F453A); test: α-MG uptake in HEK293 cells, F453A mutant; assay type: cell-based; set-up: expressed in transfected cells
T1 sequence (P31639 1-672 F453A): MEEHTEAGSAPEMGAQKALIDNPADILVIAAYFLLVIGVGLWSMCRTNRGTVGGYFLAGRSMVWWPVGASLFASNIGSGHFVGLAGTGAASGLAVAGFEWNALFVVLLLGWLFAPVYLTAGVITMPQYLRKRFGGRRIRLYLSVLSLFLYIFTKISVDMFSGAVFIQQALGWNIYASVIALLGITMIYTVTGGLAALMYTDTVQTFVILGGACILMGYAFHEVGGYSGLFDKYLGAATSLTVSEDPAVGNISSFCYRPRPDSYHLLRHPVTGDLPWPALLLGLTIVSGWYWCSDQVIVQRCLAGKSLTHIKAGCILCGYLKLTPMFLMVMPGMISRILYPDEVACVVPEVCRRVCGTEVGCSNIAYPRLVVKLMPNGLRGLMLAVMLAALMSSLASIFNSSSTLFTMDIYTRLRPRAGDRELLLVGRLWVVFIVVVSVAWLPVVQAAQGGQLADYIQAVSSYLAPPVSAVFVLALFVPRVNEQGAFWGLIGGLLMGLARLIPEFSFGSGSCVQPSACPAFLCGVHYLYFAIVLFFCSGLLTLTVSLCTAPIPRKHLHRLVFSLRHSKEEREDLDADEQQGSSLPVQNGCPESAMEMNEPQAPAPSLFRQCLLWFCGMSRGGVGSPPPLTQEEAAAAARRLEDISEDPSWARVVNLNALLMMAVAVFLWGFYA
T1 sequence (Q13113 1-114 partner): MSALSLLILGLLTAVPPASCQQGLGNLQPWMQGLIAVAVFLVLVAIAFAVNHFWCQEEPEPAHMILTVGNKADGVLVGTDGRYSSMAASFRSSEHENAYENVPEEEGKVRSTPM
Description: hSGLT2 complementary DNA and human MAP17 cDNA were synthesized and codon-optimized for expression in human cell lines. Both cDNAs were cloned into the pcDNA3.4 vector. The hSGLT2 sequence was fused with an N-terminal signal sequence from human trypsinogen 1, a His10 tag, and sfGFP, followed by a human rhinovirus 3C protease (HRV3C protease) recognition site. Point mutations were introduced into this construct using site-directed mutagenesis. These plasmids were utilized for all experimental procedures conducted in this study.
(§1) HEK293 cells (ECACC 85120602) were maintained in Dulbecco’s modified Eagle medium (Gibco) supplemented with 10% fetal bovine serum (Thermo Scientific), 2 mM L-glutamine, 100 U ml^−1 benzylpenicillin and 100 µg ml^−1 streptomycin at 37 °C in a humidified atmosphere (5% CO2 in air). HEK293 cells were seeded at 1.0 × 10^5 cells per well in poly-L-lysine coated 24-well plates. The cells in each well were transiently transfected with 0.25 µg hMAP17 plasmid and 0.50 µg hSGLT2 plasmid using Lipofectamine 2000 (Life Technologies) and cultured for 48 h. […] After preincubation, uptake was initiated by replacing the preincubation buffer with extracellular fluid buffer containing 500 μM α-MG in the absence or presence of inhibitors. Uptake was completed by removing the uptake buffer and washing with ice-cold buffer three times, followed by solubilization in 1 N NaOH at room temperature.
(§2) Cell lysates were deproteinized by adding acetonitrile containing candesartan as the internal standard. The α-MG concentration was quantified via liquid chromatography–tandem mass spectrometry (LC–MS/MS) using the internal standard method.
(§3) Cellular protein content was determined using a bicinchoninic acid protein assay kit (Thermo Fisher Scientific). The uptake of α-MG was expressed as the ratio of concentration in the cells (in pmol per mg protein) to concentration in the medium (in pmol μl^−1); this is known as the cell-to-medium ratio (in μl per mg protein).
(§4) In the inhibition study, the cell-to-medium ratio of cells transfected with the empty vector was used as the background. The specific α-MG uptake was calculated by subtracting this background from the total cell-to-medium ratio and normalized to the uptake achieved without the inhibitor. IC50 was calculated via nonlinear regression using GraphPad Prism 8.4.3.
(§5) The concentrations of the extract solution from the filter plate and of the cell lysate were quantified using a tandem mass spectrometry QTRAP6500 System (SCIEX) coupled with an ACQUITY UPLC system (Waters) using the internal standard method. Mobile phases A and B used 10 mM of ammonium bicarbonate and acetonitrile, respectively.

WT hSGLT2 = target: T2, WT hSGLT2 (Homo sapiens, UniProt P31639); test: α-MG uptake in hSGLT2-transfected HEK293 cells, WT; assay type: cell-based
T2 construct: expressed in transfected cells; host or cells: HEK293 cells (ECACC 85120602)
T2 sequence (P31639 1-672): T1 sequence (P31639 1-672 F453A) with A453F
T2 sequence (Q13113 1-114 partner): T1 sequence (Q13113 1-114 partner)
Protocol: as §1, §2, §3, §4, §5

For `Cc1ccc([C@@H]2O[C@H](CO)[C@@H](O)[C@H](O)[C@H]2O)cc1Cc1ccc(-c2ccc(F)cc2)s1` [Canagliflozin], the IC50 (SGLT2) is given as ~2.7 nM.
For `O=C(CCc1ccc(O)cc1)c1c(O)cc(O)cc1O[C@@H]1O[C@H](CO)[C@@H](O)[C@H](O)[C@H]1O` [Phlorizin], the metabolic stability [1] is given as “poor”, the “α-MG uptake (% of control)” value (hSGLT2 F453A; Phlorizin 0.3 nM) is given as 102.6 % of control and 120.9 % of control and 125.2 % of control and the “α-MG uptake (% of control)” value (hSGLT2 F453A; Phlorizin 1 nM) is given as 103.4 % of control and 113.9 % of control and 124.6 % of control. For the same compound, the “α-MG uptake (% of control)” value (hSGLT2 F453A; Phlorizin 3 nM) was 96.6 % of control and 95.6 % of control and 68.3 % of control, the “α-MG uptake (% of control)” value (hSGLT2 F453A; Phlorizin 10 nM) was 133.1 % of control and 118.1 % of control and 89.5 % of control and the “α-MG uptake (% of control)” value (hSGLT2 F453A; Phlorizin 30 nM) was 123.6 % of control and 119.1 % of control and 101.2 % of control. For the same compound, the “α-MG uptake (% of control)” value (hSGLT2 F453A; Phlorizin 100 nM) was 126.1 % of control and 70.5 % of control and 71.8 % of control, the remaining activity at 0.0003 µM (WT hSGLT2; HEK293, Phlorizin 0.3 nM, WT, read-out: α-MG uptake (% of control)) was 103% and the remaining activity at 0.001 µM (WT hSGLT2; HEK293, Phlorizin 1 nM, WT, read-out: α-MG uptake (% of control)) was 101%. The remaining activity at 0.01 µM (WT hSGLT2; HEK293, Phlorizin 10 nM, WT, read-out: α-MG uptake (% of control)) was 81.9%, the remaining activity at 0.03 µM (WT hSGLT2; HEK293, Phlorizin 30 nM, WT, read-out: α-MG uptake (% of control)) was 53.8% and the remaining activity at 0.1 µM (WT hSGLT2; HEK293, Phlorizin 100 nM, WT, read-out: α-MG uptake (% of control)) was 36.9%. The remaining activity at 0.3 µM (WT hSGLT2; HEK293, Phlorizin 300 nM, WT, read-out: α-MG uptake (% of control)) was 18.1%, the “α-MG uptake (% of control)” value (WT hSGLT2; Phlorizin 0.3 nM, WT) was 107.5 % of control and 105.5 % of control and the “α-MG uptake (% of control)” value (WT hSGLT2; Phlorizin 1 nM, WT) was 114.0 % of control and 107.4 % of control. The “α-MG uptake (% of control)” value (WT hSGLT2; Phlorizin 3 nM, WT) was 83.9 % of control and 115.8 % of control and 121.5 % of control, the “α-MG uptake (% of control)” value (WT hSGLT2; Phlorizin 10 nM, WT) was 71.6 % of control and 84.5 % of control and the “α-MG uptake (% of control)” value (WT hSGLT2; Phlorizin 30 nM, WT) was 70.4 % of control and 72.9 % of control. For the same compound, the “α-MG uptake (% of control)” value (WT hSGLT2; Phlorizin 100 nM, WT) was 38.1 % of control and 34.4 % of control and the “α-MG uptake (% of control)” value (WT hSGLT2; Phlorizin 300 nM, WT) was 15.6 % of control and 11.8 % of control.
In the case of `CO[C@H]1O[C@H](CO)[C@@H](O)[C@H](O)[C@H]1O` [α-MG, α-methyl-D-glucopyranoside], the α-MG uptake (hSGLT2 F453A; Fig. 3h) is reported as 21.78 μL/mg-protein and 20.01 μL/mg-protein and 27.75 μL/mg-protein, the α-MG uptake (WT hSGLT2; Control (no inhibitor), hSGLT2 cells) is reported as 23.4464 μL/mg-protein and 18.7820 μL/mg-protein and 14.3913 μL/mg-protein and 26.3540 μL/mg-protein and the α-MG uptake (WT hSGLT2; Fig. 3h, WT) is reported as 101.43 μL/mg-protein and 101.01 μL/mg-protein and 97.56 μL/mg-protein. For the same compound, the α-MG uptake (WT hSGLT2; time course, 500 μM α-MG, 15 min, hSGLT2) was 4.1190 μL/mg-protein and 4.1163 μL/mg-protein and 6.4519 μL/mg-protein and the α-MG uptake (WT hSGLT2; time course, 500 μM α-MG, 30 min, hSGLT2) was 12.1536 μL/mg-protein and 10.6771 μL/mg-protein and 14.5344 μL/mg-protein.
